Results reported in patent US8791273B2, “4R,5S-enantiomer of 2-(5-methyl-2-oxo-4-phenyl-pyrrolidin-1-yl)-acetamide with nootropic activity” (JSC Grindeks, priority 2009, dated 2014).
Marks after values point to notes of the source that are not given here.

Tests used:
ICR male mice = experiment: Passive avoidance test (learning and memory); type: in vivo; conditions: for Latent time (retention latency to cross into the dark compartment): intraperitoneally 46 μmol/kg 60 min before the training trial, retention test 24 hours later, cut-off 300 s, mean±S.E.M, n≧10
Method: Passive avoidance test was performed in a shuttle-box apparatus (Ugo Basile, Italy) with two communicating compartments of equal size (20×10×16 cm) and a stainless steel grid floor (bars spaced 0.7 cm apart). The right-hand compartment (shock compartment) was painted black to obtain a dark chamber. The left-hand compartment was painted white and illuminated by a bulb (100 W) installed on the top of plexiglass cover. These compartments were separated by a guillotine door (5×4 cm). On day 1 (training trial), mice were placed in the illuminated compartment and the door between the two compartments was opened 60 s later. When mice entered the dark compartment with all four feet, the door automatically closed and an inescapable electrical foot shock (0.1 mA; 3 s) was delivered through the grid floor. Latency to cross into the dark compartment (training latency) was automatically measured. The retention test was performed 24 hours later (day 2). Mice were placed into the light (safe) compartment, with access to the dark one (within 10 s) for a period of 300 s (cut-off time). The latency to cross into the dark compartment with all four feet was automatically measured (retention latency).
Effects of 2-(4R-phenyl-2-oxopyrrolidin-1-yl)acetamide), racemic 2-(5-methyl-2-oxo-4-phenyl-pyrrolidin-1-yl)-acetamide and 2-(5S-methyl-2-oxo-4R-phenyl-pyrrolidin-1-yl)-acetamide on retention of passive avoidance response (memory) in ICR male mice.
The compounds were administered intraperitoneally at the dose of 46 μmol/kg 60 min before the training trial (day 1). The saline control group was run concurrently with the drug-treated groups. The statistical analysis was performed by Student's t-test. Data represent mean±S.E.M *p<0.05, ^#p<0.05, ^$p<0.05 versus saline control group, 2-(4R-phenyl-2-oxopyrrolidin-1-yl)acetamide-treated group and racemic2-(5-methyl-2-oxo-4-phenyl-pyrrolidin-1-yl)-acetamide-treated group, respectively; n≧10

SMILES | Latent time (retention latency to cross into the dark compartment) (ICR male mice) | effect on memory in the passive avoidance task (ICR male mice; dose of 46 μmol/kg, Student's t-test) | melting point
CC1C(c2ccccc2)CC(=O)N1CC(N)=O (racemic) [2-(5-methyl-2-oxo-4-phenyl-pyrrolidin-1-yl)-acetamide racemic, 2-(5-methyl-2-oxo-4-phenyl-pyrrolidin-1-yl)-acetamide] | 74.2 ± 19.9 s | – | –
NC(=O)CN1C[C@@H](c2ccccc2)CC1=O [2-(4R-phenyl-2-oxopyrrolidin-1-yl)acetamide, reference compound] | 94.9 ± 27.6 s | – | –
C[C@H]1[C@@H](c2ccccc2)CC(=O)N1CC(N)=O [2-(5S-methyl-2-oxo-4R-phenyl-pyrrolidin-1-yl)-acetamide] | 170.6 ± 41.9* ^#$ s | statistically significant effect on memory | 169 to 171 °C
